{"source": "patent US9187518B2", "about": "“Antiangiogenic brassinosteroid compounds” (CONSEJO NACIONAL DE INVESTIGACIONES CIENTIFICAS Y TECNICAS …, priority 2011, dated 2015)", "key": {"HUVEC cells": {"system": "HUVEC cells", "assay": "Capillary tube formation on a Matrigel", "type": "cell-based, human", "settings": "for reduction of tube formation vs untreated control: not statistically significant", "experimental": "The formation of capillary tube like structures by HUVEC cells was analyzed on 24-well cell culture plates coated with an extracellular membrane matrix (Matrigel; BD Biosciences).\nMatrigel was thawed at 4° C. Using precooled plates and tips, 100 μl/well of Matrigel was distributed and allowed to gelify at 37° C. for at least 30 min. Cells were seeded on the polymerized Matrigel (5 to 8×10^4 cells/well). The plate was incubated at 37° C., and tube formation was observed under a optic inverted microscope. Digital pictures were taken at different times with a camera. Tubular structures were quantified by manual counting of low power fields (25×) and inhibition percentage was expressed using untreated wells as 100%.\nThe formation of capillary tube-like structures by HUVEC cells was analyzed on 24-well cell culture plates coated with an extracellular membrane matrix (Matrigel; BD Biosciences). Matrigel was thawed at 4° C. Using precooled plates and tips, 100 μl/well of Matrigel was distributed and allowed to gelify at 37° C. for at least 30 min. Cells were seeded on the polymerized Matrigel (5 to 8×10^4 cells/well) in absence and presence of concentrations of 20 μM and 40 μM of each compound. The plate was incubated at 37° C., and tube formation was observed under an optic inverted microscope. Compound 1 was used as positive control."}, "HSV-1": {"system": "HSV-1", "assay": "Anti-HSV-1 activity (multiplication and viral spreading) in human conjunctival and corneal cells", "type": "cell-based, Herpes simplex virus type 1"}}, "data": [{"smiles": "CC[C@@H](C(C)C)[C@H](O)[C@@H](O)[C@@H](C)[C@H]1CC[C@H]2[C@@H]3CCC4=CC(=O)CC[C@]4(C)[C@H]3CC[C@]12C", "note": "[Compound 1, (22S,23S)-22,23-dihydroxystigmast-4-en-3-one]", "values": [{"measurement": "reduction of tube formation vs untreated control", "setting": "HUVEC cells; 2.5 μM, 24 h", "result": 17.3, "unit": "%"}, {"measurement": "reduction of tube formation vs untreated control", "setting": "HUVEC cells; 5 μM, 24 h", "result": 25.9, "unit": "%"}, {"measurement": "reduction of the tube-like network", "setting": "HUVEC cells; 10 μM, 24 h", "result": 59.8, "unit": "%"}, {"measurement": "formation of capillary tube like structures", "setting": "HUVEC cells; 20 μM and 40 μM, comparative assay", "result": "showed inhibitory activity"}, {"measurement": "reduction of the tube-like network", "setting": "HUVEC cells; 20 μM, 24 h", "result": 90.7, "unit": "%"}, {"measurement": "inhibition of tube formation", "setting": "HUVEC cells; 50 μM, 24 h", "result": "complete inhibition"}, {"measurement": "inhibition of tube formation", "setting": "HUVEC cells; 100 μM, 24 h", "result": "complete inhibition"}, {"measurement": "inhibition at 40 µM", "setting": "HUVEC cells; Homo sapiens, HUVEC, 40 μM, 24 h", "result": 93.9, "unit": "%"}, {"measurement": "HSV-1 multiplication and viral spreading", "setting": "HSV-1; human conjunctival cells", "result": "prevents"}, {"measurement": "selectivity indices (SI)", "setting": "HSV-1; human conjunctival cells", "result": 13.2}, {"measurement": "HSV-1 multiplication and viral spreading", "setting": "HSV-1; human corneal cells", "result": "prevents"}, {"measurement": "selectivity indices (SI)", "setting": "HSV-1; human corneal cells", "result": 9.3}]}]}
